Results taken from patent US20260183301A1, “TREATING DISEASES AND DISORDERS WITH IRAK4-MODIFYING COMPOUNDS” (Curis, Inc., priority 2022, published 2026).
Entries after “also recorded” stand apart in the source; their conditions may differ.

Tests used:
[1] = test system: resistant or refractory, advanced NHL; test: Phase I dose escalation trial of oral monotherapy in NHL: tumor reduction; type: in vivo, human; settings: all doses
Description: (§1) Seven dosing cohorts included 50 and 100 mg QD, and 50, 100, 200, 300, or 400 mg BID of daily continuous oral monotherapy in 21-Day cycles. Objective included safety and tolerance (primary), pk/pd and early efficacy (secondary), and biomarker correlations (exploratory). 31 patients with resistant or refractory, advanced NHL have been enrolled.

[2] = test system: NF-kB p-p50 S337; test: Western blot of NF-kB p-p50 S337 in TF-1 (AML) cells; type: cell-based; settings: 3 μM and 10 μM, 48 h, vs DMSO
Description: At 48 h post-treatment, cell lysates were obtained. Protein sample concentration was quantified and equal amount 20 μg of whole protein extract was loaded in each well of SDS-polyacrylamide gel. Cell extracts were separated by 10% SDS-PAGE, transferred to nitrocellulose membrane, and probed as indicated. The following antibodies were used for immunoblot analysis: NF-kB p-p50 S337 (Santa Cruz Biotechnology) and b-actin (Cell Signaling Technology).

[3] = Phase I dose escalation trial in NHL: safety and tolerance (adverse effects, DLT)
Description: as §1

[4] = test system: in vivo models of non-Hodgkin's lymphoma; test: In vivo models of non-Hodgkin's lymphoma: tumor growth; settings: FIGS. 22A-C, each model
[5] = test system: cytokine; test: Pharmacodynamic cytokine changes in Phase I NHL patients; type: in vivo, human
[6] = 200 mg BID, N = 5, [E] not defined
[7] = 300 mg BID, N = 6, [E] not defined
[8] = 400 mg BID, N = 8, [E] not defined

## Cc1cc(-c2nc(C(=O)Nc3cc4oc(N5CCOCC5)nc4nc3N3CC[C@@H](O)C3)co2)ccn1 [Compound 1, emavusertib]
[1]
  evaluable patients with overall tumor burden decreases of ≥20% from baseline: Eight of 28
[2]
  expression of NF-kB p-p50 S337: downregulated
[3]; 200 mg BID (n = 5)
  Back pain, All Grades: 20%
  Back pain, Grade 3 or 4: 0%
  Constipation, All Grades: 20%
  Constipation, Grade 3 or 4: 0%
  Cough, All Grades: 40%
  Cough, Grade 3 or 4: 0%
  Dehydration, All Grades: 20%
  Dehydration, Grade 3 or 4: 0%
  Diarrhea, All Grades: 20%
  Diarrhea, Grade 3 or 4: 0%
  Dizziness, All Grades: 0%
  Dizziness, Grade 3 or 4: 0%
  Dyspnoe, All Grades: 20%
  Dyspnoe, Grade 3 or 4: 0%
  Fatigue, All Grades: 40%
  Fatigue, Grade 3 or 4: 0%
  Headache, All Grades: 20%
  Headache, Grade 3 or 4: 0%
  Insomnia, All Grades: 20%
  Insomnia, Grade 3 or 4: 0%
  Muscle weakness, All Grades: 20%
  Muscle weakness, Grade 3 or 4: 20%
  Myalgia, All Grades: 40%
  Myalgia, Grade 3 or 4: 0%
  Nausea, All Grades: 20%
  Nausea, Grade 3 or 4: 0%
  Oedema, All Grades: 25%
  Oedema, Grade 3 or 4: 0%
  Peripheral sensory neuropathy, All Grades: 0%
  Peripheral sensory neuropathy, Grade 3 or 4: 0%
  Rhabdomyolysis, All Grades: 0%
  Rhabdomyolysis, Grade 3 or 4: 0%
  Upper respiratory infection, All Grades: 40%
  Upper respiratory infection, Grade 3 or 4: 20%
  Vomiting, All Grades: 20%
  Vomiting, Grade 3 or 4: 0%
[3]; 200 mg BID, N = 5
  Anemia, All Grades: 1 (20.0) n (%)
  Anemia, Grade 3 or Higher: 0 n (%)
  Neutropenia, All Grades: 2 (40.0) n (%)
  Neutropenia, Grade 3 or Higher: 2 (40.0) n (%)
  Thrombocytopenia, All Grades: 0 n (%)
  Thrombocytopenia, Grade 3 or Higher: 0 n (%)
[3]; [6]
  Anemia, All Grades [E]: [1]
  Neutropenia, All Grades [E]: [3]
  Neutropenia, Grade 3 or Higher [E]: [2]
[3]; 300 mg BID (n = 6)
  Back pain, All Grades: 0%
  Back pain, Grade 3 or 4: 0%
  Constipation, All Grades: 0%
  Constipation, Grade 3 or 4: 0%
  Cough, All Grades: 0%
  Cough, Grade 3 or 4: 0%
  Dehydration, All Grades: 0%
  Dehydration, Grade 3 or 4: 0%
  Diarrhea, All Grades: 40%
  Diarrhea, Grade 3 or 4: 0%
  Dizziness, All Grades: 0%
  Dizziness, Grade 3 or 4: 0%
  Dyspnoe, All Grades: 0%
  Dyspnoe, Grade 3 or 4: 0%
  Fatigue, All Grades: 0%
  Fatigue, Grade 3 or 4: 0%
  Headache, All Grades: 0%
  Headache, Grade 3 or 4: 0%
  Insomnia, All Grades: 0%
  Insomnia, Grade 3 or 4: 0%
  Muscle weakness, All Grades: 0%
  Muscle weakness, Grade 3 or 4: 0%
  Myalgia, All Grades: 0%
  Myalgia, Grade 3 or 4: 0%
  Nausea, All Grades: 17%
  Nausea, Grade 3 or 4: 0%
  Oedema, All Grades: 0%
  Oedema, Grade 3 or 4: 0%
  Peripheral sensory neuropathy, All Grades: 0%
  Peripheral sensory neuropathy, Grade 3 or 4: 0%
  Rhabdomyolysis, All Grades: 0%
  Rhabdomyolysis, Grade 3 or 4: 0%
  Upper respiratory infection, All Grades: 0%
  Upper respiratory infection, Grade 3 or 4: 0%
  Vomiting, All Grades: 20%
  Vomiting, Grade 3 or 4: 20%
[3]; 300 mg BID, N = 6
  Anemia, All Grades: 2 (33.3) n (%)
  Anemia, Grade 3 or Higher: 0 n (%)
  Neutropenia, All Grades: 1 (16.7) n (%)
  Neutropenia, Grade 3 or Higher: 1 (16.7) n (%)
  Thrombocytopenia, All Grades: 0 n (%)
  Thrombocytopenia, Grade 3 or Higher: 0 n (%)
[3]; [7]
  Anemia, All Grades [E]: [3]
  Neutropenia, All Grades [E]: [5]
  Neutropenia, Grade 3 or Higher [E]: [1]
[3]; 300 mg BID, six patients
  DLT: without DLT
[3]; 400 mg BID (n = 8)
  Back pain, All Grades: 12.5%
  Back pain, Grade 3 or 4: 0%
  Constipation, All Grades: 20%
  Constipation, Grade 3 or 4: 0%
  Cough, All Grades: 0%
  Cough, Grade 3 or 4: 0%
  Dehydration, All Grades: 12.5%
  Dehydration, Grade 3 or 4: 0%
  Diarrhea, All Grades: 25%
  Diarrhea, Grade 3 or 4: 0%
  Dizziness, All Grades: 25%
  Dizziness, Grade 3 or 4: 0%
  Dyspnoe, All Grades: 12.5%
  Dyspnoe, Grade 3 or 4: 12.5%
  Fatigue, All Grades: 50%
  Fatigue, Grade 3 or 4: 0%
  Headache, All Grades: 12.5%
  Headache, Grade 3 or 4: 0%
  Insomnia, All Grades: 12.5%
  Insomnia, Grade 3 or 4: 0%
  Muscle weakness, All Grades: 12.5%
  Muscle weakness, Grade 3 or 4: 0%
  Myalgia, All Grades: 37.5%
  Myalgia, Grade 3 or 4: 0%
  Nausea, All Grades: 50%
  Nausea, Grade 3 or 4: 0%
  Oedema, All Grades: 0%
  Oedema, Grade 3 or 4: 0%
  Peripheral sensory neuropathy, All Grades: 25%
  Peripheral sensory neuropathy, Grade 3 or 4: 0%
  Rhabdomyolysis, All Grades: 25%
  Rhabdomyolysis, Grade 3 or 4: 25%
  Upper respiratory infection, All Grades: 12.5%
  Upper respiratory infection, Grade 3 or 4: 0%
  Vomiting, All Grades: 25%
  Vomiting, Grade 3 or 4: 0%
[3]; 400 mg BID, N = 8
  Anemia, All Grades: 1 (12.5) n (%)
  Anemia, Grade 3 or Higher: 1 (12.5) n (%)
  Neutropenia, All Grades: 2 (25.0) n (%)
  Neutropenia, Grade 3 or Higher: 0 n (%)
  Thrombocytopenia, All Grades: 1 (12.5) n (%)
  Thrombocytopenia, Grade 3 or Higher: 1 (12.5) n (%)
[3]; [8]
  Anemia, All Grades [E]: [1]
  Anemia, Grade 3 or Higher [E]: [1]
  Neutropenia, All Grades [E]: [3]
  Thrombocytopenia, All Grades [E]: [2]
  Thrombocytopenia, Grade 3 or Higher [E]: [2]
[3]; 400 mg BID, reversible after treatment interruption
  DLT-evaluable patients with Grade 3 rhabdomyolysis (DLTs): 2 of 5
[3]; 18 patients at 200 to 400 mg BID
  Grade 3 combined episodes of neutropenia, anemia, thrombocytopenia: 4
[3]; Phase I NHL
  toxic deaths: No toxic deaths
[3]; Phase I NHL, 50 mg QD to 400 mg BID
  overall safety and tolerance: well tolerated; also recorded: good safety and tolerance
[3]; WM patient, 200 mg po BID, asymptomatic, resolved with exercise moderation
  creatine phosphokinase (CPK) elevation, grade: grade 2
[3]; WM patient, continuous oral treatment for close to 18 months
  tolerability: well tolerated
[3]; WM patient, first dose level 50 mg
  tolerability: without adverse events
[3]; at RP2D (300 mg BID)
  safety and tolerability profile: acceptable safety and tolerability profile
[3]; diarrhea, vomiting, fatigue, dyspnea, myalgia
  grade of most non-hematologic TEAEs: Grade 1 or 2
[4]
  tumor growth: reduced tumor growth
[5]
  pharmacodynamic changes in cytokines: cytokine reductions
